{
  "source": "the NIST ThermoML archive (doi:10.1021/je025660t)",
  "conditions": "Liquid",
  "note": "Numbers after ± are expanded uncertainties.",
  "data": [
    {"smiles": "CC#N", "note": "[acetonitrile]", "values": [
      {"measurement": "vapor or sublimation pressure", "setting": "302.25 K", "value": "14.15 ± 0.071", "unit": "kPa"},
      {"measurement": "vapor or sublimation pressure", "setting": "307.09 K", "value": "17.52 ± 0.073", "unit": "kPa"},
      {"measurement": "vapor or sublimation pressure", "setting": "311.49 K", "value": "21.13 ± 0.076", "unit": "kPa"},
      {"measurement": "vapor or sublimation pressure", "setting": "313.15 K", "value": "22.65 ± 0.077", "unit": "kPa"},
      {"measurement": "vapor or sublimation pressure", "setting": "316.27 K", "value": "25.72 ± 0.079", "unit": "kPa"},
      {"measurement": "vapor or sublimation pressure", "setting": "318.18 K", "value": "27.78 ± 0.08", "unit": "kPa"},
      {"measurement": "vapor or sublimation pressure", "setting": "320.65 K", "value": "30.64 ± 0.082", "unit": "kPa"},
      {"measurement": "vapor or sublimation pressure", "setting": "323.16 K", "value": "33.8 ± 0.084", "unit": "kPa"},
      {"measurement": "vapor or sublimation pressure", "setting": "326.16 K", "value": "37.9 ± 0.087", "unit": "kPa"},
      {"measurement": "vapor or sublimation pressure", "setting": "328.5 K", "value": "41.38 ± 0.089", "unit": "kPa"},
      {"measurement": "vapor or sublimation pressure", "setting": "331.15 K", "value": "45.62 ± 0.092", "unit": "kPa"},
      {"measurement": "vapor or sublimation pressure", "setting": "333.15 K", "value": "49.06 ± 0.094", "unit": "kPa"},
      {"measurement": "vapor or sublimation pressure", "setting": "335.84 K", "value": "54.01 ± 0.097", "unit": "kPa"},
      {"measurement": "vapor or sublimation pressure", "setting": "338.15 K", "value": "58.58 ± 0.1", "unit": "kPa"},
      {"measurement": "vapor or sublimation pressure", "setting": "343.18 K", "value": "69.62 ± 0.11", "unit": "kPa"},
      {"measurement": "vapor or sublimation pressure", "setting": "348.25 K", "value": "82.37 ± 0.12", "unit": "kPa"},
      {"measurement": "vapor or sublimation pressure", "setting": "353.1 K", "value": "96.34 ± 0.12", "unit": "kPa"}
    ]},
    {"smiles": "CCC#N", "note": "[propanenitrile]", "values": [
      {"measurement": "vapor or sublimation pressure", "setting": "309.38 K", "value": "10.59 ± 0.069", "unit": "kPa"},
      {"measurement": "vapor or sublimation pressure", "setting": "311.56 K", "value": "11.55 ± 0.2", "unit": "kPa"},
      {"measurement": "vapor or sublimation pressure", "setting": "313.15 K", "value": "12.55 ± 0.07", "unit": "kPa"},
      {"measurement": "vapor or sublimation pressure", "setting": "315.89 K", "value": "14.14 ± 0.071", "unit": "kPa"},
      {"measurement": "vapor or sublimation pressure", "setting": "318.35 K", "value": "15.71 ± 0.072", "unit": "kPa"},
      {"measurement": "vapor or sublimation pressure", "setting": "320.51 K", "value": "17.22 ± 0.073", "unit": "kPa"},
      {"measurement": "vapor or sublimation pressure", "setting": "323.15 K", "value": "19.22 ± 0.074", "unit": "kPa"},
      {"measurement": "vapor or sublimation pressure", "setting": "325.74 K", "value": "21.35 ± 0.076", "unit": "kPa"},
      {"measurement": "vapor or sublimation pressure", "setting": "328.27 K", "value": "23.64 ± 0.077", "unit": "kPa"},
      {"measurement": "vapor or sublimation pressure", "setting": "330.82 K", "value": "26.11 ± 0.079", "unit": "kPa"},
      {"measurement": "vapor or sublimation pressure", "setting": "333.15 K", "value": "28.57 ± 0.08", "unit": "kPa"},
      {"measurement": "vapor or sublimation pressure", "setting": "335.82 K", "value": "31.64 ± 0.082", "unit": "kPa"},
      {"measurement": "vapor or sublimation pressure", "setting": "338.22 K", "value": "34.61 ± 0.085", "unit": "kPa"},
      {"measurement": "vapor or sublimation pressure", "setting": "343.08 K", "value": "41.33 ± 0.089", "unit": "kPa"},
      {"measurement": "vapor or sublimation pressure", "setting": "348.09 K", "value": "49.32 ± 0.094", "unit": "kPa"},
      {"measurement": "vapor or sublimation pressure", "setting": "353.15 K", "value": "58.6 ± 0.1", "unit": "kPa"}
    ]},
    {"smiles": "CCCCCN", "note": "[1-pentanamine]", "values": [
      {"measurement": "vapor or sublimation pressure", "setting": "322.61 K", "value": "13.08 ± 0.07", "unit": "kPa"},
      {"measurement": "vapor or sublimation pressure", "setting": "328.37 K", "value": "16.87 ± 0.073", "unit": "kPa"},
      {"measurement": "vapor or sublimation pressure", "setting": "333.14 K", "value": "20.65 ± 0.075", "unit": "kPa"},
      {"measurement": "vapor or sublimation pressure", "setting": "338.07 K", "value": "25.25 ± 0.078", "unit": "kPa"},
      {"measurement": "vapor or sublimation pressure", "setting": "340.66 K", "value": "27.99 ± 0.08", "unit": "kPa"},
      {"measurement": "vapor or sublimation pressure", "setting": "343.16 K", "value": "30.85 ± 0.082", "unit": "kPa"},
      {"measurement": "vapor or sublimation pressure", "setting": "345.56 K", "value": "33.81 ± 0.084", "unit": "kPa"},
      {"measurement": "vapor or sublimation pressure", "setting": "348.11 K", "value": "37.22 ± 0.086", "unit": "kPa"},
      {"measurement": "vapor or sublimation pressure", "setting": "353.15 K", "value": "44.75 ± 0.091", "unit": "kPa"},
      {"measurement": "vapor or sublimation pressure", "setting": "358.15 K", "value": "53.38 ± 0.097", "unit": "kPa"},
      {"measurement": "vapor or sublimation pressure", "setting": "363.14 K", "value": "63.27 ± 0.1", "unit": "kPa"},
      {"measurement": "vapor or sublimation pressure", "setting": "370.62 K", "value": "80.72 ± 0.12", "unit": "kPa"},
      {"measurement": "vapor or sublimation pressure", "setting": "377.93 K", "value": "101.33 ± 0.13", "unit": "kPa"}
    ]},
    {"smiles": "COCC(C)O", "note": "(centres undefined) [1-methoxy-2-propanol]", "values": [
      {"measurement": "vapor or sublimation pressure", "setting": "331.47 K", "value": "9.246 ± 0.14", "unit": "kPa"},
      {"measurement": "vapor or sublimation pressure", "setting": "333.15 K", "value": "10.01 ± 0.14", "unit": "kPa"},
      {"measurement": "vapor or sublimation pressure", "setting": "339.12 K", "value": "13.11 ± 0.14", "unit": "kPa"},
      {"measurement": "vapor or sublimation pressure", "setting": "343.15 K", "value": "15.79 ± 0.14", "unit": "kPa"},
      {"measurement": "vapor or sublimation pressure", "setting": "347.71 K", "value": "19.25 ± 0.15", "unit": "kPa"},
      {"measurement": "vapor or sublimation pressure", "setting": "351.56 K", "value": "22.64 ± 0.15", "unit": "kPa"},
      {"measurement": "vapor or sublimation pressure", "setting": "353.15 K", "value": "24.17 ± 0.15", "unit": "kPa"},
      {"measurement": "vapor or sublimation pressure", "setting": "355.59 K", "value": "26.69 ± 0.16", "unit": "kPa"},
      {"measurement": "vapor or sublimation pressure", "setting": "358.15 K", "value": "29.57 ± 0.16", "unit": "kPa"},
      {"measurement": "vapor or sublimation pressure", "setting": "360.78 K", "value": "32.79 ± 0.17", "unit": "kPa"},
      {"measurement": "vapor or sublimation pressure", "setting": "363.01 K", "value": "35.74 ± 0.17", "unit": "kPa"},
      {"measurement": "vapor or sublimation pressure", "setting": "368.23 K", "value": "43.48 ± 0.18", "unit": "kPa"},
      {"measurement": "vapor or sublimation pressure", "setting": "373.31 K", "value": "52.31 ± 0.19", "unit": "kPa"}
    ]}
  ]
}
